Experimental data as given in patent publication US6379670B1, “Methods for treatment of multiple sclerosis using peptide analogs of human myelin basic protein” (Neurocrine Biosciences, Inc., priority 1994, dated 2002).
Non-standard residues stand in square brackets, D forms with d. No end group written: not given here.

How the values were obtained:
[1] = tested on: peripheral blood mononuclear cells; experiment: Frequency of antigen-reactive T cells in PBMC of untreated MS patients and healthy donors (split-well); format: cell-based, human; set-up: mean frequency of antigen-reactive T cells / frequency of antigen-reactive T cells in healthy subjects / antigen-reactive T cells, % Positive: concentration or dose not given beside the values
Procedure: Immune response to the peptide analog was assessed by measuring the frequency of proliferating peripheral blood T cells using a split-well microtiter method (i.e., number of positive wells {Δ cpm >1000, stimulation index>3} divided by the total number of wells assayed). Peripheral blood mononuclear cells (PBMC) were isolated from venous blood by Ficoll-Hypaque density gradient centrifugation, washed twice and resuspended in complete tissue culture medium (Iscove's modification of Dulbecco's medium containing 10% heat-inactivated, pooled, human A-B serum, 2 mM L-glutamine, 100 U/ml penicillin/streptomycin and 50 μg/ml gentamycin). PBMC from each patient were seeded at 10^5/well in 96 well, U-bottom microtiter plates containing 25 μg/ml whole MBP, 10 μg/ml NBI-5788 or medium alone in a volume of 200 μl. Three days later supernatants were collected and frozen at −80° C. and fresh medium containing IL-2 (10 U/ml) was added. IL-2-containg medium was refreshed on Day 7 and Day 11. On Day 14, the frequency of antigen response was determined by the “split well” technique. Briefly, cells from one primary well were split into replicate experimental wells in the presence of 10^5 freshly isolated autologous, irradiated peripheral blood mononuclear cells (APCs): one containing the original antigen (25 μg/ml) and one without antigen. Two days later supernatants were collected and the wells pulsed with 1 µCi/well [^3H]-thymidine ([…]) for the final 18 hours of culture. ^3H-Thymidine uptake was measured in a beta counter. […] The association between T cell frequency and NBI-5788 treatment was evaluated by χ^2 contingency analysis.

[2] = tested on: NBI-5788- or MBP-reactive TCL from MS patients; experiment: Cytokine secretion (IFN-γ, IL-5) by TCL from MS patients, ELISA; format: in vivo, human
Procedure: To more fully characterize the nature of the immune response generated following APL administration, proliferating NBI-5788- or MBP-reactive TCL were established from untreated or NBI-5788-treated MS patients. […] Levels of Th2 cytokine IL-5 and Th1 cytokine IFN-γ were measured in culture supernatants collected 48 hours after stimulation with the selecting antigen, either NBI-5788 or whole MBP. Cytokines produced by T cell lines were assayed by ELISA. To measure cytokine levels, a sandwich ELISA method was used as follows: Nunc Maxisorp microtiter plates (Nalge Nunc, Denmark) were coated with capture mAb (Pharmingen, San Diego, Calif.) at 2 μg/ml for IL-4, IL-10, IL-13 and IFN-γ or at 1 μg/ml for IL-5. The capture mAb was diluted with 0.1 M NaHCO3 dispensed on the plate and incubated at 4° C. overnight. Plates were then blocked for at least 30 minutes at RT with 1% BSA (Sigma, St. Louis, Mo.) for IL-4, IL-5, IL-10 and IL-13 or 1% casein (Sigma) for IFN-γ. Standards were serially diluted (1000-1 pg/ml for IL-4 and 4000-5.5 pg/ml for IL-5, IL-10, IL-13 and IFN-γ) in blocking buffer and added to the plate. Samples were diluted at least 1:2 in blocking buffer and added to the plate. The plates were incubated at room temperature for one hour. The plates were washed and the biotinylated detection mAb (Pharmingen) was added to the plates at 1 μg/ml for IL-5 and IFN-γ or 2 μg/ml for IL-4, L-10, and IL-13. The plates were incubated for 1.5 hours at RT. After washing the plates streptavidin-peroxidase (Pierce, Rockford, Ill.) was added at 1 μg/ml for IL-5, IL-10, and IL-13 or 2 μg/ml for IL-4 and IFN-γ. The plates were incubated for 20-30 minutes. After washing thoroughly, TMB (Calbiochem, San Diego, Calif.) was added and the color was allowed to develop. The reaction was stopped by 0.2N H2SO4 and absorbance at 450 nm was determined. The association between cytokine phenotype and NBI-5788 treatment was evaluated by χ^2 contingency analysis. Mean cytokine secretion levels were compared using MannWhitney U test for non-parametric data. Probability values≦0.05 were considered significant.

[3] = subject MS-2, untreated MS patient
[4] = subject MS-3, untreated MS patient
[5] = subject MS-7, untreated MS patient
[6] = subject MS-8, untreated MS patient
[7] = subject MS-9, untreated MS patient
[8] = subject MS-10, untreated MS patient
[9] = subject MS-11, untreated MS patient

MBP(83-99) (83E>a, 84N>K, 89F>L, and 91K>A) ([dA]KPVVHLFANIVTPRTP) [NBI-5788]
antigen-reactive T cells, Positive/total wells ([1]; Total of healthy donors): 0/96 | antigen-reactive T cells, Positive/total wells ([1]; Total of untreated MS patients): 19/308 | antigen-reactive T cells, % Positive ([1]; healthy donor HD-1): 0% | antigen-reactive T cells, Positive/total wells ([1]; healthy donor HD-1): 0/48 | antigen-reactive T cells, % Positive ([1]; healthy donor HD-2): 0% | antigen-reactive T cells, Positive/total wells ([1]; healthy donor HD-2): 0/48 | antigen-reactive T cells, % Positive [1, 3]: 6.8% | antigen-reactive T cells, Positive/total wells [1, 3]: 3/44 | antigen-reactive T cells, % Positive [1, 4]: 2.3% | antigen-reactive T cells, Positive/total wells [1, 4]: 1/44 | antigen-reactive T cells, % Positive [1, 5]: 6.8% | antigen-reactive T cells, Positive/total wells [1, 5]: 3/44 | antigen-reactive T cells, % Positive [1, 6]: 11.4% | antigen-reactive T cells, Positive/total wells [1, 6]: 5/44 | antigen-reactive T cells, % Positive [1, 7]: 9.1% | antigen-reactive T cells, Positive/total wells [1, 7]: 4/44 | antigen-reactive T cells, % Positive [1, 8]: 4.5% | antigen-reactive T cells, Positive/total wells [1, 8]: 2/44 | antigen-reactive T cells, % Positive [1, 9]: 2.3% | antigen-reactive T cells, Positive/total wells [1, 9]: 1/44 | frequency of antigen-reactive T cells in healthy subjects ([1]; two healthy subjects, MBP-reactive cells detected in one of two): no NBI-5788-reactive T cells were detected | mean frequency of antigen-reactive T cells ([1]; untreated MS patients (n=7)): 6.2±1.3% | MBP-reactive TCL from APL-treated MS patients that secreted more IL-5 than IFN-γ ([2]; 13 of 23 TCL): 56% | APL-reactive TCL from APL-treated MS patients that secreted more IL-5 than IFN-γ ([2]; 19 of 32 TCL): 59% | change of mean IFN-γ secretion of MBP-reactive and APL-reactive T cell lines, APL-treated compared to non-treated MS patients ([2]; FIGS. 31A and 31B): significant (p<0.05) decrease | cytokine phenotype of NBI-5788-reactive TCL from APL-treated versus untreated MS patients ([2]; secreting more IL-5 than IFN-γ): more Th2-like | change of mean IL-5 secretion of TCL, APL-treated compared to non-treated MS patients ([2]; significant (p<0.05) for APL-reactive TCL, but not for MBP-reactive TCL): concomitant increase
